Data as given in the NIST ThermoML archive (doi:10.1016/j.fluid.2018.04.012).
Numbers after ± are expanded uncertainties.

Experiment: xn = mol fraction of the nth substance listed
Settings: Liquid, Vibrating tube method

CC(C)OC(C)C [diisopropyl ether] + CC(C)O
mass density [kg/m3]
Settings	x2 = 0.1503	x2 = 0.2979	x2 = 0.4228	x2 = 0.5	x2 = 0.6737	x2 = 0.8483
298.15 K, 100 kPa	725.5 ± 0.7	732.6 ± 0.7	739.4 ± 0.7	743.7 ± 0.7	754.9 ± 0.7	768 ± 0.7
298.15 K, 1000 kPa	726.6 ± 0.7	733.6 ± 0.7	740.5 ± 0.7	744.7 ± 0.7	755.8 ± 0.7	768.9 ± 0.7
298.15 K, 5000 kPa	731.3 ± 0.7	738.2 ± 0.7	744.8 ± 0.7	749 ± 0.7	759.9 ± 0.7	772.6 ± 0.7
298.15 K, 10000 kPa	736.8 ± 0.7	743.6 ± 0.7	749.9 ± 0.7	754 ± 0.7	764.7 ± 0.7	777.1 ± 0.7
298.15 K, 15000 kPa	742.1 ± 0.8	748.6 ± 0.8	754.6 ± 0.7	758.8 ± 0.7	769.1 ± 0.7	781.3 ± 0.7
298.15 K, 20000 kPa	746.8 ± 0.8	753.2 ± 0.8	759.2 ± 0.8	763.2 ± 0.8	773.4 ± 0.8	785.2 ± 0.8
298.15 K, 25000 kPa	751.4 ± 0.8	757.6 ± 0.8	763.5 ± 0.8	767.5 ± 0.8	777.4 ± 0.8	789 ± 0.8
298.15 K, 30000 kPa	755.7 ± 0.8	761.9 ± 0.8	767.6 ± 0.8	771.5 ± 0.8	781.2 ± 0.8	792.6 ± 0.8
298.15 K, 35000 kPa	759.7 ± 0.8	765.8 ± 0.8	771.5 ± 0.8	775.2 ± 0.8	784.8 ± 0.8	796 ± 0.8
298.15 K, 40000 kPa	763.6 ± 0.8	769.6 ± 0.8	775.2 ± 0.8	778.9 ± 0.8	788.3 ± 0.8	799.3 ± 0.8
298.15 K, 45000 kPa	767.4 ± 0.9	773.2 ± 0.9	778.8 ± 0.8	782.4 ± 0.8	791.7 ± 0.8	802.6 ± 0.8
298.15 K, 50000 kPa	770.9 ± 0.9	776.7 ± 0.9	782.2 ± 0.9	785.8 ± 0.9	794.9 ± 0.8	805.6 ± 0.8
298.15 K, 55000 kPa	774.4 ± 0.9	780.1 ± 0.9	785.5 ± 0.9	789 ± 0.9	798.1 ± 0.9	808.6 ± 0.8
298.15 K, 60000 kPa	777.7 ± 0.9	783.3 ± 0.9	788.7 ± 0.9	792.1 ± 0.9	801.1 ± 0.9	811.5 ± 0.9
298.15 K, 65000 kPa	780.9 ± 0.9	786.5 ± 0.9	791.8 ± 0.9	795.2 ± 0.9	804 ± 0.9	814.3 ± 0.9
298.15 K, 70000 kPa	784 ± 1	789.5 ± 1	794.8 ± 0.9	798.2 ± 0.9	806.8 ± 0.9	817.1 ± 0.9
298.15 K, 80000 kPa	789.9 ± 1	795.3 ± 1	800.5 ± 1	803.8 ± 1	812.3 ± 0.9	822.3 ± 0.9
298.15 K, 90000 kPa	795.6 ± 1	800.8 ± 1	805.9 ± 1	809.1 ± 1	817.5 ± 1	827.3 ± 1
298.15 K, 100000 kPa	800.8 ± 1.1	806 ± 1.1	810.9 ± 1	814.2 ± 1	822.4 ± 1	832 ± 1
298.15 K, 110000 kPa	805.8 ± 1.1	811 ± 1.1	815.8 ± 1.1	818.9 ± 1.1	827.1 ± 1	836.6 ± 1
298.15 K, 120000 kPa	810.5 ± 1.2	815.6 ± 1.1	820.4 ± 1.1	823.5 ± 1.1	831.5 ± 1.1	840.8 ± 1
298.15 K, 130000 kPa	815.1 ± 1.2	820.1 ± 1.2	824.8 ± 1.2	827.9 ± 1.1	835.7 ± 1.1	844.9 ± 1.1
298.15 K, 140000 kPa	819.5 ± 1.2	824.4 ± 1.2	829 ± 1.2	832.1 ± 1.2	839.8 ± 1.1	848.9 ± 1.1
313.15 K, 100 kPa	709.6 ± 0.7	716.9 ± 0.7	724 ± 0.7	728.5 ± 0.7	740.2 ± 0.7	754 ± 0.7
313.15 K, 1000 kPa	710.8 ± 0.7	718.1 ± 0.7	725.1 ± 0.7	729.6 ± 0.7	741.3 ± 0.7	755 ± 0.7
313.15 K, 5000 kPa	716.3 ± 0.7	723.3 ± 0.7	730 ± 0.7	734.4 ± 0.7	745.9 ± 0.7	759.2 ± 0.7
313.15 K, 10000 kPa	722.4 ± 0.7	729.3 ± 0.7	735.7 ± 0.7	740.1 ± 0.7	751.1 ± 0.7	764.1 ± 0.7
313.15 K, 15000 kPa	728.1 ± 0.8	734.8 ± 0.8	741 ± 0.8	745.3 ± 0.8	756 ± 0.7	768.7 ± 0.7
313.15 K, 20000 kPa	733.4 ± 0.8	739.9 ± 0.8	746 ± 0.8	750.2 ± 0.8	760.7 ± 0.8	773 ± 0.8
313.15 K, 25000 kPa	738.2 ± 0.8	744.6 ± 0.8	750.7 ± 0.8	754.6 ± 0.8	764.8 ± 0.8	776.9 ± 0.8
313.15 K, 30000 kPa	743.1 ± 0.8	749.4 ± 0.8	755.1 ± 0.8	759.2 ± 0.8	769.2 ± 0.8	781 ± 0.8
313.15 K, 35000 kPa	747.6 ± 0.8	753.6 ± 0.8	759.3 ± 0.8	763.3 ± 0.8	773.1 ± 0.8	784.7 ± 0.8
313.15 K, 40000 kPa	751.7 ± 0.9	757.7 ± 0.8	763.4 ± 0.8	767.2 ± 0.8	776.8 ± 0.8	788.2 ± 0.8
313.15 K, 45000 kPa	755.7 ± 0.9	761.6 ± 0.9	767.2 ± 0.9	770.9 ± 0.9	780.4 ± 0.8	791.7 ± 0.8
313.15 K, 50000 kPa	759.5 ± 0.9	765.4 ± 0.9	770.9 ± 0.9	774.5 ± 0.9	783.9 ± 0.9	794.9 ± 0.8
313.15 K, 55000 kPa	763.3 ± 0.9	769 ± 0.9	774.4 ± 0.9	778.1 ± 0.9	787.3 ± 0.9	798.1 ± 0.9
313.15 K, 60000 kPa	766.8 ± 0.9	772.5 ± 0.9	777.8 ± 0.9	781.4 ± 0.9	790.5 ± 0.9	801.2 ± 0.9
313.15 K, 65000 kPa	770.2 ± 1	775.8 ± 1	781.1 ± 0.9	784.7 ± 0.9	793.7 ± 0.9	804.2 ± 0.9
313.15 K, 70000 kPa	773.5 ± 1	779 ± 1	784.3 ± 1	787.7 ± 1	796.6 ± 0.9	807 ± 0.9
313.15 K, 80000 kPa	779.6 ± 1	785.1 ± 1	790.3 ± 1	793.6 ± 1	802.3 ± 1	812.5 ± 0.9
313.15 K, 90000 kPa	785.6 ± 1.1	790.9 ± 1.1	796 ± 1	799.3 ± 1	807.8 ± 1	817.8 ± 1
313.15 K, 100000 kPa	791.2 ± 1.1	796.3 ± 1.1	801.3 ± 1.1	804.5 ± 1.1	812.9 ± 1	822.7 ± 1
313.15 K, 110000 kPa	796.4 ± 1.2	801.5 ± 1.1	806.4 ± 1.1	809.6 ± 1.1	817.9 ± 1.1	827.5 ± 1
313.15 K, 120000 kPa	801.3 ± 1.2	806.4 ± 1.2	811.2 ± 1.2	814.4 ± 1.1	822.4 ± 1.1	832 ± 1.1
313.15 K, 130000 kPa	806.2 ± 1.2	811.2 ± 1.2	815.8 ± 1.2	819 ± 1.2	826.9 ± 1.1	836.3 ± 1.1
313.15 K, 140000 kPa	810.9 ± 1.3	815.8 ± 1.2	820.2 ± 1.2	823.5 ± 1.2	831.3 ± 1.2	840.6 ± 1.1
333.15 K, 100 kPa	687.4 ± 0.7	694.9 ± 0.7	702.4 ± 0.7	707 ± 0.7	719.4 ± 0.7	734.1 ± 0.7
333.15 K, 1000 kPa	689 ± 0.7	696.4 ± 0.7	703.7 ± 0.7	708.4 ± 0.7	720.7 ± 0.7	735.3 ± 0.7
333.15 K, 5000 kPa	695.4 ± 0.7	702.6 ± 0.7	709.5 ± 0.7	714.2 ± 0.7	726.1 ± 0.7	740.2 ± 0.7
333.15 K, 10000 kPa	702.7 ± 0.8	709.6 ± 0.7	716.1 ± 0.7	720.7 ± 0.7	732.2 ± 0.7	745.8 ± 0.7
333.15 K, 15000 kPa	709.3 ± 0.8	716 ± 0.8	722.3 ± 0.8	726.8 ± 0.8	737.9 ± 0.8	751.1 ± 0.7
333.15 K, 20000 kPa	715.3 ± 0.8	721.8 ± 0.8	728 ± 0.8	732.3 ± 0.8	743.1 ± 0.8	755.9 ± 0.8
333.15 K, 25000 kPa	720.9 ± 0.8	727.3 ± 0.8	733.3 ± 0.8	737.5 ± 0.8	748 ± 0.8	760.5 ± 0.8
333.15 K, 30000 kPa	726.2 ± 0.8	732.4 ± 0.8	738.3 ± 0.8	742.4 ± 0.8	752.6 ± 0.8	764.9 ± 0.8
333.15 K, 35000 kPa	731.1 ± 0.8	737.2 ± 0.8	743 ± 0.8	747 ± 0.8	757 ± 0.8	769 ± 0.8
333.15 K, 40000 kPa	735.8 ± 0.9	741.7 ± 0.9	747.4 ± 0.9	751.4 ± 0.9	761.2 ± 0.8	772.9 ± 0.8
333.15 K, 45000 kPa	740.2 ± 0.9	746 ± 0.9	751.7 ± 0.9	755.4 ± 0.9	765.1 ± 0.9	776.6 ± 0.8
333.15 K, 50000 kPa	744.4 ± 0.9	750.2 ± 0.9	755.7 ± 0.9	759.4 ± 0.9	768.9 ± 0.9	780.3 ± 0.9
333.15 K, 55000 kPa	748.4 ± 0.9	754.1 ± 0.9	759.6 ± 0.9	763.2 ± 0.9	772.6 ± 0.9	783.8 ± 0.9
333.15 K, 60000 kPa	752.2 ± 1	757.8 ± 1	763.3 ± 0.9	766.8 ± 0.9	776.1 ± 0.9	787 ± 0.9
333.15 K, 65000 kPa	756 ± 1	761.5 ± 1	766.9 ± 1	770.4 ± 1	779.4 ± 0.9	790.3 ± 0.9
333.15 K, 70000 kPa	759.5 ± 1	765 ± 1	770.3 ± 1	773.7 ± 1	782.7 ± 1	793.5 ± 0.9
333.15 K, 80000 kPa	766.3 ± 1.1	771.6 ± 1	776.8 ± 1	780.1 ± 1	788.9 ± 1	799.3 ± 1
333.15 K, 90000 kPa	772.6 ± 1.1	777.8 ± 1.1	782.9 ± 1.1	786.2 ± 1.1	794.8 ± 1	805 ± 1
333.15 K, 100000 kPa	778.5 ± 1.2	783.6 ± 1.1	788.6 ± 1.1	791.8 ± 1.1	800.2 ± 1.1	810.2 ± 1
333.15 K, 110000 kPa	784.1 ± 1.2	789.2 ± 1.2	794 ± 1.2	797.3 ± 1.1	805.5 ± 1.1	815.3 ± 1.1
333.15 K, 120000 kPa	789.4 ± 1.2	794.4 ± 1.2	799.1 ± 1.2	802.3 ± 1.2	810.4 ± 1.1	820.1 ± 1.1
333.15 K, 130000 kPa	794.5 ± 1.3	799.4 ± 1.3	804 ± 1.2	–	–	–
